This is an account of results in patent US20190212343A1, “METHODS FOR THE TREATMENT OF DISORDERS RELATED TO PHOSPHORYLATION OF HISTONES” (H. LEE MOFFITT CANCER CENTER AND RESEARCH INSTITUTE, INC., priority 2014, published 2019).

The test system of one experiment is PSA mRNA. The experiment in a line: PSA mRNA levels in androgen-deprived prostate cancer cells (qPCR with PSA primers). The format is cell-based, human. The following applies: overnight treatment. The method, then:
(FIG. 7A) VCaP and (FIG. 7B) LNCaP cells were grown in absence of androgen and were overnight treated with DZI-067 (7 uM in VCaP, 2.5 & 5 uM in LnCaP), AIM-100 (7 uM), PLX4032 (7 uM), Casodex, Enzalutamide (10 uM) and DHT (10 nM, 3 Hr). Total RNA was isolated followed by qPCR with AR primers. VCaP, *p=0.022, **p=0.018; LNCaP, *p=0.042, **p=0.047, ***p=0.029. (FIG. 7C) VCaP and (FIG. 7D) LNCaP cells were grown in absence of androgen and were overnight treated with DZ1-067 (7 uM in LAPC4, 2.5 & 5 uM in LnCaP), AIM-100 (7 uM), PLX4032 (7 uM), Casodex, Enzalutamide (10 uM) and DHT (10 nM, 3 Hr). Total RNA was isolated followed by qPCR with PSA primers.
For orientation: Quantitative PCR measures a nucleic acid by following its amplification.

The subject of the next experiment is AR mRNA. The experiment is described as follows: AR mRNA levels in androgen-deprived prostate cancer cells (qPCR with AR primers). The following applies: androgen-deprived LAPC4 and LNCaP cells, overnight treatment. It counts as cell-based, human.
The test system of experiment [1] is H4 Y88-phosphorylation (ACK1). The experiment is described as follows: Endogenous H4 pY88-phosphorylation in LNCaP cells (pY88-H4 immunoprecipitation / H4 immunoblot). It counts as cell-based, human. The following applies: 16 hrs. Here is the method:
FIGS. 9A-9E show ACK1 phosphorylates histone H4 at Tyrosine 88. (FIG. 9A) peptide were spotted followed by immunoblotting with indicated antibodies. (FIG. 9B) Equimolar amounts of purified ACK1 and H4 proteins were incubated in the presence of AIM-100 (100 nM) and reaction subjected to immunoblotting with pTyr antibodies. (FIG. 9C) In vitro kinase assay performed using purified ACK1 and H4, followed by immunoblotting with pY88-H4 antibodies. (FIG. 9D) H4 Y88-phosphorylation in vivo. LNCaP cells were treated with DZI-067, AIM-100 or Enzalutamide (7 uM, 16 hrs). The nuclear lysates were immunoprecipitated with pY88-H4 antibodies followed by immunoblotting with H4. Lower panel is input lysate. (FIG. 9E) LNCaP cells were treated with Crizotinib (1 uM, 16 hrs). The cell lysates were immunoprecipitated with pY88-H4 antibodies followed by immunoblotting with H4 (upper panel).
To explore the sensitivity of endogenous H4 pY88-phosphorylation to ACK1 inhibitor, LNCaP cells were treated with DZI-067, AIM-100 or Enzalutamide.
Applicant also assessed the sensitivity of endogenous H4 pY88-phosphorylation to small molecule inhibitor, Crizotinib, also known as Xalkori (Pfizer). […] It is approved for treatment of some non-small cell lung carcinoma (NSCLC).
A general note: Immunoblotting shows a protein as a band on a membrane.

For another experiment, the system named is CRPC patients. The following applies: cited from earlier work.
Another experiment relates to AR protein levels. The experiment in a line: AR protein levels in androgen deprived prostate cancer cells (immunoblotting). The format is cell-based, human. The following applies: LNCaP cells, MG 132 10 uM 6 hr, in presence or absence of AIM-100. The method, then:
(FIG. 6A) Androgen starved LAPC4 cells were treated with DHT (10 nM, 16 Hrs), AIM-100, DZI-067, Enzalutamide or PLX4032 (7 uM, 36 Hr) and AR, pACK1 and Actin levels were determined by immunoblotting (IB). The relative level of AR is shown below. (FIG. 6B) Androgen deprived LNCaP and VCaP cell were untreated or treated with 2.5, 5 and 10 uM of AIM-100 and lysates were immunoblotted. The quantitation of AR expression is shown. (FIG. 6C) Androgen deprived LNCaP and VCaP cell were untreated or treated with 2.5, 5 and 10 uM of DZI-067 and lysates were immunoblotted. The quantitation of AR expression is shown. (FIG. 6D) LNCaP cells were transfected with control and Ack1 siRNAs followed by immunoblotting. (FIG. 6E) LNCaP cells treated with AIM-100 (7 uM, 16 hr) or MG 132 (10 uM, 6 hr) were immunoblotted with AR antibodies. […]
AR has been known to interact with an ubiquitin E3 ligase, RNF6, causing AR ubiquitination, which in turn promoted AR transcriptional activity (Xu, K. et al. (2009) Cancer Cell 15(4):270-282). To determine whether post-translational modification has role to play in suppression of AR levels upon Ack1 kinase inhibition, LNCaP cells were treated with proteosomal inhibitor, MG-132 and AR levels were measured in presence or absence of AIM-100.

A further experiment concerns IDH2 transcript. The experiment in a line: Epigenetic marks and IDH2 transcript levels in melanoma cancer cells. The format is cell-based, human.
In a further experiment the test system is WEE1. The following applies: yeast and mammalian cells; cited from earlier work.
The test system of experiment [2] is WEE1 expressing cancer cell lines. The following applies: cited from earlier work.

Residues, ends and D or L forms follow the SMILES beside them. *: point of attachment. Cbz = O=C(OCc1ccccc1)*

In the case of `CC(O)(CS(=O)(=O)c1ccc(F)cc1)C(=O)Nc1ccc(C#N)c(C(F)(F)F)c1` (stereo not drawn) [Casodex], the “PSA mRNA levels” value with PSA mRNA was “significantly suppressed PSA mRNA levels”. In addition, the “AR mRNA levels” value in the experiment on AR mRNA was “no significant change in AR mRNA levels”.

For `C[C@@H](Oc1cc(-c2cnn(C3CCNCC3)c2)cnc1N)c1c(Cl)ccc(F)c1Cl` [Crizotinib], the “endogenous pY88-phosphorylation of H4” value in experiment [1] (1 uM) is “significant loss of endogenous pY88-phosphorylation of H4”.

Consider `C[C@]12CCC(=O)C[C@@H]1CC[C@@H]1[C@@H]2CC[C@]2(C)[C@@H](O)CC[C@@H]12` [DHT, dihydrotestosterone], for which, in experiment [1] (7 uM), the “endogenous pY88-phosphorylation of H4” value is recorded as “unaffected”. Further, the “AR mRNA levels” value in the experiment with AR mRNA is “no significant change in AR mRNA levels”.

`CNC(=O)c1ccc(N2C(=S)N(c3ccc(C#N)c(C(F)(F)F)c3)C(=O)C2(C)C)cc1F` [Enzalutamide]: the “endogenous pY88-phosphorylation of H4” value in experiment [1] (7 uM) was “unaffected”. Besides, the “PSA mRNA levels” value in the experiment on PSA mRNA is “significantly suppressed PSA mRNA levels”. Also, in the experiment on CRPC patients, the “CRPC patients in whom treatment is effective” value is listed as 12 out of 30, the overall survival advantage was 4-6 months and the “time to relapse of the most responding patients” value is no more than 2 years. Further, in the experiment on AR mRNA, the “AR mRNA levels” value is reported as “no significant change in AR mRNA levels”.

In the case of `CC(C)C[C@@H](C=O)NC(=O)[C@H](CC(C)C)NC(=O)[C@H](CC(C)C)NC(=O)OCc1ccccc1` [MG-132] (Cbz-Leu-Leu-Leu-aldehyde), the “loss of AR caused by Ack1 kinase inhibition” value with AR protein levels was “did not prevent loss of AR”.

Turning to `C=CCn1c(=O)c2cnc(Nc3ccc(N4CCN(C)CC4)cc3)nc2n1-c1cccc(C(C)(C)O)n1` [MK-1775], in the experiment on IDH2 transcript, the IDH2 transcript levels entry is given as “increasing IDH2 transcript levels” and the WEE1 epigenetic marks result is “reversed epigenetic marks”. Moreover, in the experiment on WEE1, the WEE1 epigenetic activity entry is listed as “inhibited WEE1 epigenetic activity” and the histone transcriptional suppression entry is “robustly reversed histone transcriptional suppression”. The apoptosis result in experiment [2] is “selectively induces apoptosis”.

On to `CCCS(=O)(=O)Nc1ccc(F)c(C(=O)c2c[nH]c3ncc(-c4ccc(Cl)cc4)cc23)c1F` [PLX4032], for which the “AR mRNA levels” value with AR mRNA is recorded as “no significant change in AR mRNA levels”.
